Experimental data: article PMC10974284, “Discovery of Novel 4-Hydroxyquinazoline Derivatives: In Silico, In Vivo and In Vitro Studies Using Primary PARPi-Resistant Cell Lines” (Molecules, 2024)

Experiments:
HCT-15 cell lines = assay: MTT cytotoxicity assay, HCT-15; type: cell-based, human; details: Homo sapiens, HCT-15; 72 h (3-Days) drug exposure, MTT; read-out: IC50 HCT-15
Protocol: (§1) After treatment with target compounds at the different concentrations, MTT was added and the cells were incubated for another 4 h. The IC50 values of the selected compounds were evaluated by the same method. The cells were treated with compounds at different concentrations. The OD values were detected using a microplate reader at 570 nm.

HCC1937 cell lines = assay: MTT cytotoxicity assay, HCC1937; type: cell-based, human; details: Homo sapiens, HCC1937; 72 h (3-Days) drug exposure, MTT; read-out: IC50 HCC1937
Protocol: as §1

Structure (SMILES)	melting point [°C]	IC50 (HCT-15 cell lines) [µM]	IC50 (HCC1937 cell lines) [µM]
Cc1ccccc1NC(=O)N1CCN(Cc2nc3ccccc3c(=O)[nH]2)CC1 [A10, 4-((4-oxo-3,4-dihydroquinazolin-2-yl)methyl)-N-(o-tolyl)piperazine-1-carboxamide]	199.9 to 201.6	15.9 ± 0.85	14.7 ± 1.03
Cc1cccc(NC(=O)N2CCN(Cc3nc4ccccc4c(=O)[nH]3)CC2)c1 [A11, 4-((4-oxo-3,4-dihydroquinazolin-2-yl)methyl)-N-(m-tolyl)piperazine-1-carboxamide]	197.8 to 200.2	25.6 ± 1.17	> 50
Cc1ccc(NC(=O)N2CCN(Cc3nc4ccccc4c(=O)[nH]3)CC2)cc1 [A12, 4-((4-oxo-3,4-dihydroquinazolin-2-yl)methyl)-N-(p-tolyl)piperazine-1-carboxamide]	197.7 to 199.5	> 50	> 50
O=C(Nc1ccccc1C(F)(F)F)N1CCN(Cc2nc3ccccc3c(=O)[nH]2)CC1 [A13, 4-((4-oxo-3,4-dihydroquinazolin-2-yl)methyl)-N-(2-(trifluoromethyl)phenyl) piperazine-1-carboxamide]	200.1 to 201.2	20.2 ± 0.78	> 50
O=C(Nc1cccc(C(F)(F)F)c1)N1CCN(Cc2nc3ccccc3c(=O)[nH]2)CC1 [A14, 4-((4-oxo-3,4-dihydroquinazolin-2-yl)methyl)-N-(3-(trifluoromethyl)phenyl)piperazine-1-carboxamide]	197.8 to 200.3	20 ± 1.15	17.7 ± 0.77
O=C(Nc1ccc(C(F)(F)F)cc1)N1CCN(Cc2nc3ccccc3c(=O)[nH]2)CC1 [A15, 4-((4-oxo-3,4-dihydroquinazolin-2-yl)methyl)-N-(4-(trifluoromethyl)phenyl)piperazine-1-carboxamide]	198.8 to 200.6	15.6 ± 0.56	> 50
COc1ccccc1NC(=O)N1CCN(Cc2nc3ccccc3c(=O)[nH]2)CC1 [A16, N-(2-methoxyphenyl)-4-((4-oxo-3,4-dihydroquinazolin-2-yl)methyl)piperazine-1-carboxamide]	188.5 to 190.7	30.7 ± 2.13	> 50
COc1cccc(NC(=O)N2CCN(Cc3nc4ccccc4c(=O)[nH]3)CC2)c1 [A17, N-(3-methoxyphenyl)-4-((4-oxo-3,4-dihydroquinazolin-2-yl)methyl)piperazine-1-carboxamide]	186.3 to 188.5	> 50	> 50
COc1ccc(NC(=O)N2CCN(Cc3nc4ccccc4c(=O)[nH]3)CC2)cc1 [A18, N-(4-methoxyphenyl)-4-((4-oxo-3,4-dihydroquinazolin-2-yl)methyl)piperazine-1-carboxamide]	184.9 to 186.9	> 50	> 50
O=C(Nc1cccc(F)c1F)N1CCN(Cc2nc3ccccc3c(=O)[nH]2)CC1 [A19, N-(2,3-difluorophenyl)-4-((4-oxo-3,4-dihydroquinazolin-2-yl)methyl)piperazine-1-carboxamide]	188.2 to 189.9	19.1 ± 0.59	> 50
Cc1cccc(NC(=O)N2CCN(Cc3nc4ccccc4c(=O)[nH]3)CC2)c1F [A21, N-(2-fluoro-3-methylphenyl)-4-((4-oxo-3,4-dihydroquinazolin-2-yl)methyl)piperazine-1-carboxamide]	200.5 to 202.1	28.3 ± 1.55	> 50
O=C(Nc1ccc(C(F)(F)F)cc1F)N1CCN(Cc2nc3ccccc3c(=O)[nH]2)CC1 [A24, N-(2-fluoro-4-(trifluoromethyl)phenyl)-4-((4-oxo-3,4-dihydroquinazolin-2-yl)methyl)piperazine-1-carboxamide]	202.3 to 203.9	22.8 ± 1.82	44.1 ± 2.19
O=C(Nc1cc(C(F)(F)F)ccc1Cl)N1CCN(Cc2nc3ccccc3c(=O)[nH]2)CC1 [A26, N-(2-chloro-5-(trifluoromethyl)phenyl)-4-((4-oxo-3,4-dihydroquinazolin-2-yl)methyl)piperazine-1-carboxamide]	191.2 to 193.9	37.3 ± 2.76	> 50
Cc1c(F)cccc1NC(=O)N1CCN(Cc2nc3ccccc3c(=O)[nH]2)CC1 [A28, N-(3-fluoro-2-methylphenyl)-4-((4-oxo-3,4-dihydroquinazolin-2-yl)methyl)piperazine-1-carboxamide]	198.9 to 200.6	30.3 ± 3.3	> 50
Cc1cc(F)ccc1NC(=O)N1CCN(Cc2nc3ccccc3c(=O)[nH]2)CC1 [A29, N-(4-fluoro-2-methylphenyl)-4-((4-oxo-3,4-dihydroquinazolin-2-yl)methyl)piperazine-1-carboxamide]	197.6 to 200.1	29.8 ± 1.57	> 50
Cc1ccc(F)cc1NC(=O)N1CCN(Cc2nc3ccccc3c(=O)[nH]2)CC1 [A30, N-(5-fluoro-2-methylphenyl)-4-((4-oxo-3,4-dihydroquinazolin-2-yl)methyl)piperazine-1-carboxamide]	201.1 to 202.8	18.3 ± 0.44	39.5 ± 1.84
Cc1c(Br)cccc1NC(=O)N1CCN(Cc2nc3ccccc3c(=O)[nH]2)CC1 [A31, N-(3-bromo-2-methylphenyl)-4-((4-oxo-3,4-dihydroquinazolin-2-yl)methyl)piperazine-1-carboxamide]	200.6 to 202.2	> 50	> 50
Cc1cccc(C)c1NC(=O)N1CCN(Cc2nc3ccccc3c(=O)[nH]2)CC1 [A33, N-(2,6-dimethylphenyl)-4-((4-oxo-3,4-dihydroquinazolin-2-yl)methyl)piperazine-1-carboxamide]	200.3 to 201.9	35 ± 2.28	39.6 ± 1.35
O=C(Nc1cc(F)cc(F)c1)N1CCN(Cc2nc3ccccc3c(=O)[nH]2)CC1 [A34, N-(3,5-difluorophenyl)-4-((4-oxo-3,4-dihydroquinazolin-2-yl)methyl)piperazine-1-carboxamide]	199.8 to 200.2	47.2 ± 3.35	> 50
Cc1cc(C)cc(NC(=O)N2CCN(Cc3nc4ccccc4c(=O)[nH]3)CC2)c1 [A38, N-(3,5-dimethylphenyl)-4-((4-oxo-3,4-dihydroquinazolin-2-yl)methyl)piperazine-1-carboxamide]	201.5 to 203.3	18 ± 0.88	17.9 ± 1.32
O=C(Nc1cc(C(F)(F)F)cc(C(F)(F)F)c1)N1CCN(Cc2nc3ccccc3c(=O)[nH]2)CC1 [A39, N-(3,5-bis(trifluoromethyl)phenyl)-4-((4-oxo-3,4-dihydroquinazolin-2-yl)methyl)piperazine-1-carboxamide]	204.2 to 206.1	21 ± 2.33	42.2 ± 2.77

More lines, main results first:

melting point [°C]	Structure (SMILES)	IC50 (HCT-15 cell lines) [µM]	IC50 (HCC1937 cell lines) [µM]
202.1 to 204.2	O=C(Nc1cc(F)ccc1F)N1CCN(Cc2nc3ccccc3c(=O)[nH]2)CC1 [A20, N-(2,5-difluorophenyl)-4-((4-oxo-3,4-dihydroquinazolin-2-yl)methyl)piperazine-1-carboxamide]	33.1 ± 2.16	41.7 ± 1.89
198.4 to 200.7	Cc1ccc(NC(=O)N2CCN(Cc3nc4ccccc4c(=O)[nH]3)CC2)c(F)c1 [A22, N-(2-fluoro-4-methylphenyl)-4-((4-oxo-3,4-dihydroquinazolin-2-yl)methyl)piperazine-1-carboxamide]	21.7 ± 1.16	> 50
199.5 to 201.1	Cc1ccc(F)c(NC(=O)N2CCN(Cc3nc4ccccc4c(=O)[nH]3)CC2)c1 [A23, N-(2-fluoro-5-methylphenyl)-4-((4-oxo-3,4-dihydroquinazolin-2-yl)methyl)piperazine-1-carboxamide]	26 ± 1.67	44.2 ± 3.47
198.4 to 199.8	O=C(Nc1c(F)cccc1Cl)N1CCN(Cc2nc3ccccc3c(=O)[nH]2)CC1 [A25, N-(2-chloro-6-fluorophenyl)-4-((4-oxo-3,4-dihydroquinazolin-2-yl)methyl)piperazine-1-carboxamide]	41.2 ± 1.44	> 50
196.7 to 198.7	Cc1ccc(Cl)c(NC(=O)N2CCN(Cc3nc4ccccc4c(=O)[nH]3)CC2)c1 [A27, N-(2-chloro-5-methylphenyl)-4-((4-oxo-3,4-dihydroquinazolin-2-yl)methyl)piperazine-1-carboxamide]	25.4 ± 1.48	17.5 ± 0.66
203.1 to 204.7	Cc1ccc(Cl)cc1NC(=O)N1CCN(Cc2nc3ccccc3c(=O)[nH]2)CC1 [A32, N-(5-chloro-2-methylphenyl)-4-((4-oxo-3,4-dihydroquinazolin-2-yl)methyl)piperazine-1-carboxamide]	10.9 ± 0.71	11.3 ± 0.73
207.5 to 209.5	O=C(Nc1cc(Cl)cc(Cl)c1)N1CCN(Cc2nc3ccccc3c(=O)[nH]2)CC1 [A35, N-(3,5-dichlorophenyl)-4-((4-oxo-3,4-dihydroquinazolin-2-yl)methyl)piperazine-1-carboxamide]	21.2 ± 0.89	> 50
200.1 to 202.7	O=C(Nc1ccc(F)c(Cl)c1)N1CCN(Cc2nc3ccccc3c(=O)[nH]2)CC1 [A36, N-(3-chloro-4-fluorophenyl)-4-((4-oxo-3,4-dihydroquinazolin-2-yl)methyl)piperazine-1-carboxamide]	25.2 ± 1.66	> 50
194.4 to 196.1	Cc1ccc(NC(=O)N2CCN(Cc3nc4ccccc4c(=O)[nH]3)CC2)cc1C [A37, N-(3,4-dimethylphenyl)-4-((4-oxo-3,4-dihydroquinazolin-2-yl)methyl)piperazine-1-carboxamide]	22.5 ± 1.49	46.4 ± 2.96
